One may read the IC50 as the concentration at which inhibition is half-maximal.

Assay [1] relates to KU812 human peripheral blood basophilic leukocytes. In words: CellTiter-Glo cell viability assay, Bcr-Abl-positive cells. To be noted: KU812, 72 h, read-out: IC50 KU812. For orientation: In ATP-based viability assays light output follows the ATP content of the culture.
Protocol: (§7) The resulting solutions were 10-fold serially diluted and formulated into 10 concentrations.
(§8) MEG-01 human megakaryocyte leukemia cells and KU812 human peripheral blood basophilic leukocytes, purchased from ATCC Company, USA.
(§9) The peripheral wells were filled with sterile PBS;
(§10) 2) Adding 10 μl of 5× concentration gradient of the tested compound, and adding 10 μl medium containing 0.5% DMSO into the blank control wells, in which the concentration of DMSO was 0.1%;
(§11) 3) Incubating the cells in a 37° C./5% CO2 incubator;
(§12) 4) Adding 30 μl Cell Titer-Glo® Reagent 72 hours after adding the compound;
(§13) 5) Incubating in a 37° C./5% CO2 incubator for 10 minutes; and centrifuging at low speed and then measuring chemiluminescence values on a PHERAstar microplate reader.
(§14) 6) Calculating cell viability (Cell Viability=(RLUsample/RLUnegative)×100%, wherein RLUsample was RLU (Relative Light Units) value of the well added with the compound and RLUnegative was RLU value of the well without the compound (i.e., cell control, which was treated with the same concentration of DMSO)). Data were processed by using a four-parameter logistic fitting module in Graphpad Prism 4.0 software to calculate IC50.
Assay [2] relates to MEG-01 human megakaryocyte leukemia cells. Described as above. The following applies: MEG-01, 72 h, read-out: IC50 MEG-01.
Protocol: as §7, §8, §9, §10, §11, §12, §13, §14
The subject of assay [3] is MDA-MB-231 human breast cancer cells. As to the kind of experiment: MTT assay, in vitro inhibitory activity on cells. It counts as cell-based. To be noted: typically 48 hours. The source says:
(§1) In this example, MTT assay was used to detect in vitro inhibitory activity of the compounds prepared according to the above examples on the cells.
(§2) Dimethyl sulfoxide (DMSO) is capable of dissolving formazan in cells, and absorbance value can be measured at a wavelength of 490 nm by an enzyme-linked immunometric meter, which reflects the number of living cells. Within a certain range of the number of cells, the amount of MTT crystals formed is proportional to the number of living cells.
(§3) 2. Culturing in a 37° C., 5% CO2 incubator and keeping the cells adhering to the walls of the wells.
(§4) 4. Carefully removing the supernatant, gently washing with PBS and discarding the supernatant again.
(§5) 6. Terminating culturing and carefully discarding the medium in each well. 7. Adding 150 μl dimethyl sulfoxide into each well, shaking for 10 minutes at low speed in a shaker, to make crystals fully dissolved.
(§6) 8. Measuring the absorbance of each well at 490 nm by an enzyme-linked immunometric meter.
On the technique in general: Tetrazolium assays rely on reduction of a dye to a coloured formazan, in cell work by metabolically active cells.

The test system of assay [4] is Ovcar-3 human ovarian cancer cells. In words: MTT assay, in vitro inhibitory activity on cells. It counts as cell-based. To be noted: typically 48 hours.
Excerpt: as §1, §2, §3, §4, §5, §6

For assay [5], the system named is Saos-2 human osteosarcoma cells. In words: MTT assay, in vitro inhibitory activity on cells. Type of assay: cell-based. To be noted: typically 48 hours.
Excerpt: as §1, §2, §3, §4, §5, §6

For the next assay, the system named is K562 leukemia cells. In words: MTT assay, in vitro inhibitory activity on cells. It counts as cell-based. The following applies: Homo sapiens, typically 48 hours, read-out: IC50 K562 Chronic myelogenous leukemia cells.
Excerpt: as §1, §2, §3, §4, §5, §6

The next assay concerns the target Human ABL1 (T315I) (Homo sapiens (Human), UniProt P00519, T315I). As to the kind of experiment: ABL1 (T315I) kinase activity assay ([γ-33P] ATP, Abltide). It counts as biochemical. To be noted: 1.0 μM ATP, 5.0 μM Abltide, 120 minutes. On the procedure:
In the experimental example, the compounds prepared according the examples of the present invention were tested for the ability to inhibit ABL (T315I) kinase activity. […] Kinase activity was determined according to the manufacturer's instructions. Peptide substrate is Abltide ([…]), purchased from Millipore Corporation, USA. Ion exchange chromatography paper P81 (ion exchange filter paper) was purchased from Whatman Company, UK. [γ-33P] ATP was purchased from Perkin Elmer Company. […] [γ-33P] ATP was added at room temperature, with final concentration of 1.0 μM, and the reaction was performed for 120 minutes. 20 μl aliquots were transferred onto the ion exchange chromatography paper P81. […] Finally, γ-33P radioactivity was measured.

As to `Cc1ccc(C(=O)Nc2ccc(CN3CCN(C)CC3)c(C(F)(F)F)c2)cc1C#Cc1cnc2[nH]ccc2n1` [Example 3], the half-inhibitory concentration (IC50) in assay [1] turned out to be 0.000395 µM; in assay [2], 0.00138 µM; in assay [3], 0.18 µM; in assay [4] it was 2.85 µM; in assay [5], 0.38 µM; in the assay on K562 leukemia cells, 6.33 µM. At Human ABL1 (T315I), this molecule displayed a concentration for half-maximal inhibition (IC50) of 0.00212 µM.

For the molecule `Cc1ccc(C(=O)Nc2ccc(CN3CCN(C)CC3)c(C(F)(F)F)c2)cc1C#Cc1ccn2nc(N)nc2c1` [Example 4, 3-((2-amino-[1,2,4]triazolo[1,5-a]pyridin-7-yl)ethynyl)-4-methyl-N-[4-((4-methylpiperazin-1-yl)methyl)-3-trifluoromethylphenyl]benzamide], the IC50 in assay [1] is 0.000789 µM; in assay [2] it was 0.00328 µM; in assay [3], 1.06 µM; in the assay on K562 leukemia cells, 13.5 µM.

Turning to `CNc1nc2cc(C#Cc3cc(C(=O)Nc4ccc(CN5CCN(C)CC5)c(C(F)(F)F)c4)ccc3C)ccn2n1` [Example 5, 3-((2-methylamino-[1,2,4]triazolo[1,5-a]pyridin-7-yl)ethynyl)-4-methyl-N-[4-((4-methylpiperazin-1-yl)methyl)-3-trifluoromethylphenyl]benzamide], the IC50 in assay [1] was 0.000633 µM; in assay [2], 0.00176 µM; in assay [3], 2.15 µM; in the assay on K562 leukemia cells, 6.79 µM; on Human ABL1 (T315I) it was 0.00228 µM.

On to `Cc1ccc(C(=O)Nc2ccc(CN3CCN(C)CC3)c(C(F)(F)F)c2)cc1C#Cc1ccn2nc(N(C)C)nc2c1` [Example 6, 3-((2-dimethylamino-[1,2,4]triazolo[1,5-a]pyridin-7-yl)ethynyl)-4-methyl-N-[4-((4-methylpiperazin-1-yl)methyl)-3-trifluoromethylphenyl]benzamide], for which the figures for the IC50 in the assay with K562 leukemia cells and against Human ABL1 (T315I) were 4.16 µM and 0.0394 µM, respectively.

For `Cc1ccc(C(=O)Nc2ccc(CN3CCN(C)CC3)c(C(F)(F)F)c2)cc1C#Cc1cn(C)c(-c2ncc(C(F)(F)F)[nH]2)n1` [Example 9, 4-methyl-3-((1-methyl-5′-trifluoromethyl-1H,1′H-[2,2′-diimidazol]-4-yl)ethynyl)-N-[4-((4-methylpiperazin-1-yl)methyl)-3-trifluoromethylphenyl]benzamide], the IC50 was 5.08 µM in assay [3]; 6.5 µM in assay [4]; 1.16 µM in assay [5]; 0.33 µM in the assay on K562 leukemia cells; 0.00645 µM against Human ABL1 (T315I).

As for `Cc1cnc(-c2nc(C#Cc3cc(C(=O)Nc4ccc(CN5CCN(CCO)CC5)c(C(F)(F)F)c4)ccc3C)cn2C)[nH]1` [Example 12, 4-methyl-3-((1-methyl-5′-methyl-1H,1′H-[2,2′-diimidazol]-4-yl)ethynyl)-N-[4-((4-hydroxyethylpiperazin-1-yl)methyl)-3-trifluoromethylphenyl]benzamide], the IC50 amounted to 1.27 µM in assay [3], 4.06 µM in assay [4], 5.73 µM in assay [5] and 2.31 µM with K562 leukemia cells.

For `Cc1ccc(C(=O)Nc2ccc(CN3CCN(C)CC3)c(C(F)(F)F)c2)cc1C#Cc1ccc(-c2ncc(C(F)(F)F)[nH]2)nc1` [Example 18, 4-methyl-3-((2-(5-trifluoromethyl-1H-imidazol-2-yl)pyridin-5-yl)ethynyl)-N-[4-((4-methylpiperazin-1-yl)methyl)-3-trifluoromethylphenyl]benzamide], the figures for the IC50 in the assay with K562 leukemia cells and against Human ABL1 (T315I) were 1.43 µM and 0.0579 µM, respectively.

As to `Cc1ccc(C(=O)Nc2ccc(CN3CCN(C)CC3)c(C(F)(F)F)c2)cc1C#Cc1ccc(-c2ncc[nH]2)nc1` [Example 19, 4-methyl-3-((2-(1H-imidazol-2-yl)pyridin-5-yl)ethynyl)-N-[4-((4-methylpiperazin-1-yl)methyl)-3-trifluoromethylphenyl]benzamide], the IC50 worked out at 3.01 µM in assay [3], 4.52 µM in the assay on K562 leukemia cells and 0.00681 µM at Human ABL1 (T315I).

Values taken from patent publication US9255107B2 (NANJING SANHOME PHARMACEUTICAL CO., LTD., priority 2012, dated 2016).
